PubChem BioAssay (NCI)
Several values for one entry are separate records, joined by “and”; a condition that tells them apart may be missing. Equal values may be shown once.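 How tested: cells in 96-well plates exposed to compound for 48 hours at five concentrations. GI50 marks 50% less growth. TGI: total growth inhibition.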

Experiments:
Assay in all cases: DTP human tumour cell line panel, 48 h
HOP-92 NSCLC = test system: HOP-92 NSCLC
HT29 colon = test system: HT29 colon
MDA-MB-231 breast = test system: MDA-MB-231 breast
NCI-H226 lung = test system: NCI-H226 lung
NCI-H522 lung = test system: NCI-H522 lung
OVCAR-4 ovarian = test system: OVCAR-4 ovarian
PC-3 prostate = test system: PC-3 prostate
SF-295 CNS = test system: SF-295 CNS
SR leukemia = test system: SR leukemia
UACC-62 melanoma = test system: UACC-62 melanoma

Row | SMILES | GI50 (HOP-92 NSCLC) | TGI (HOP-92 NSCLC) | GI50 (HT29 colon) | TGI (HT29 colon) | GI50 (MDA-MB-231 breast) | TGI (MDA-MB-231 breast) | GI50 (NCI-H226 lung) | TGI (NCI-H226 lung) | GI50 (NCI-H522 lung) | TGI (NCI-H522 lung) | GI50 (OVCAR-4 ovarian) | TGI (OVCAR-4 ovarian) | GI50 (PC-3 prostate) | TGI (PC-3 prostate) | GI50 (SF-295 CNS) | TGI (SF-295 CNS) | GI50 (SR leukemia) | TGI (SR leukemia) | GI50 (UACC-62 melanoma) | TGI (UACC-62 melanoma)
1 | CCOC(=O)Oc1c(OC)cc(C(=O)c2ccc(OC)c(OC(=O)CCl)c2OC)cc1OC | 1.78 µM | > 100 µM | 3.15 µM | 18.8 µM | 1.9 µM | > 100 µM | 4.38 µM | 37.9 µM | 0.264 µM | 1.31 µM | 6.34 µM | > 100 µM | 2.83 µM | > 100 µM | 0.886 µM | 33.7 µM | 0.459 µM | > 100 µM | 2.67 µM | > 100 µM
2 | CC1/C=C/C=C/CC/C=C/C=C/C=C/C=C/C(OC2OC(C)C(O)C(N)C2O)CC2OC(CC(O)C(O)CCC(O)CC(O)CC(O)CC(=O)OC(C)C(C)C1O)CC(O)C2C(=O)O (configuration not stated) | 42.5 µg/mL | > 100 µM and 150 µg/mL | 37.2 µg/mL | 32.8 µM and 84.8 µg/mL | 29.4 µg/mL | 39.4 µM and 69.2 µg/mL | 28.7 µg/mL | 28.3 µM and 53.6 µg/mL | 29.8 µg/mL | 34.3 µM and 53.7 µg/mL | 23.9 µg/mL | 29.4 µM and 52.5 µg/mL | 31.2 µg/mL | 36.4 µM and 75.7 µg/mL | 46.2 µg/mL | 45.7 µM and 108 µg/mL |  | 35.5 µM | 28.8 µg/mL | 38 µM and 55.8 µg/mL
3 | Clc1ccc(N2COOC3(OOC2)C2CC4CC(C2)CC3C4)cc1 | 14.9 µM | 43.5 µM | 9.93 µM | > 60.1 µM | 6.69 µM | > 57.9 µM | > 61.2 µM | > 100 µM | 1.75 µM | 6.91 µM | 5.52 µM | > 59.5 µM | 5.11 µM | > 75.3 µM | 2.99 µM | 17.9 µM | 2.19 µM | 11.4 µM | 1.01 µM | > 43 µM
4 | O=C1NC(=O)[C@@H](c2cn3c4c(cccc24)CCC3)[C@@H]1c1c[nH]c2ccccc12 | 0.354 µM and 1.68 µM | > 10 µM and 25.5 µM | 0.312 µM and 0.321 µM | > 4.4 µM and 1.57 µM | 0.632 µM and 1.19 µM | 8.12 µM and 9.86 µM | > 2.61 µM and 1.48 µM | > 10 µM and 17.9 µM | 0.201 µM and 0.365 µM |  | 1.58 µM and 1.12 µM | > 10 µM and 20.2 µM | 0.411 µM and 0.521 µM | > 10 µM and 37.4 µM | 0.33 µM and 0.26 µM | > 10 µM and 5.08 µM | 0.246 µM and 0.377 µM | > 10 µM and 27.6 µM | 0.443 µM and 0.51 µM | > 10 µM and 18.3 µM
5 | O=C1C(Cl)=C(Oc2ccccc2)C(=O)c2ccccc21 | 1.8 µM | 4.56 µM | 3.09 µM | 12.3 µM | 6.51 µM | 21.1 µM | 12.1 µM | 28.7 µM | 1.51 µM | 2.96 µM | 2.58 µM | 7.22 µM | 4.34 µM | 20.9 µM | 3.03 µM | 11.3 µM | 4.49 µM | 39.1 µM | 3.46 µM | 11.7 µM
6 | Cc1cc(S(=O)(=O)Nc2nnc(-c3ccco3)c(-c3ccco3)n2)c(SCc2ccccc2)cc1Cl | 21.5 µM | 45.4 µM | 23.1 µM | 47.1 µM | 24.8 µM | 47.6 µM | 22.4 µM | 69.9 µM | 24.8 µM | 65.7 µM | 22 µM | 41.6 µM | 28 µM | 57 µM | 29.2 µM | 83.9 µM | 19.4 µM | 40 µM | 19.4 µM | 37.2 µM
7 | CCNCCNc1cc(-c2ccc(Cl)cc2)c(C#N)c2nc3ccccc3n12 | 1.7 µM | 3.2 µM | 1.79 µM | 3.47 µM | 1.92 µM | 3.58 µM | 1.79 µM | 4.31 µM | 2 µM | 3.84 µM | 1.64 µM | 4.09 µM | 1.86 µM | 3.39 µM | 1.72 µM | 3.31 µM | 0.282 µM | 0.69 µM | 1.85 µM | 3.65 µM
8 | COc1ccc(/C=C\c2cc(OC)c(OC)c(OC)c2)cc1NC(=O)[C@@H](N)CO | 0.0103 µM | 64.5 µM | < 0.0173 µM | 20.5 µM | 0.0215 µM | > 100 µM | 0.0287 µM | > 100 µM | < 0.01 µM | 0.0457 µM | 0.0355 µM | > 100 µM | 0.0188 µM | > 100 µM | < 0.01 µM | > 100 µM | < 0.015 µM | > 100 µM |  | > 100 µM
9 | C=C1C(=O)O[C@H]2[C@H]1CC/C(COC(=O)/C=C/c1cccnc1)=C\CC[C@@]1(C)O[C@@H]21 | 0.853 µM | 2.74 µM | 2.23 µM | 6.03 µM | 2 µM | 5.04 µM | 2.68 µM | 9.98 µM | 1.33 µM | 3.48 µM | 3.96 µM | 16.9 µM | 8.28 µM | 22.1 µM | 10.6 µM | 23.1 µM | 1.57 µM | 7.01 µM | 1.89 µM | 5 µM
10 | Cc1c(C(=O)CCl)c(=O)n(-c2ccccc2)n1C | 1.56 µM | 13.2 µM | 3.25 µM | 12.9 µM | 11.2 µM | 27.9 µM | 13.3 µM | 33.2 µM | 1.46 µM | 3.23 µM | 3.68 µM | 14.9 µM | 11.4 µM | 37.5 µM | 10.9 µM | 44.3 µM | 2.28 µM | 13.5 µM | 4.78 µM | 18.9 µM
11 | CC(=O)C(C(=N)C#N)C(=O)Nc1ccccc1 (configuration not stated) |  | > 100 µM |  | > 100 µM |  | > 100 µM |  | > 100 µM |  | > 100 µM |  | > 100 µM |  | > 100 µM |  | > 100 µM |  | > 100 µM |  | > 100 µM
12 | CCOC(=O)c1sc2ncn(Cc3cccc(Cl)c3)c(=O)c2c1C | 12.2 µM | 24.5 µM | 19.3 µM | 33.4 µM | 13.6 µM | 26.4 µM | 12.9 µM | 25.8 µM | 10.9 µM | 23.3 µM | 16.2 µM | 29.7 µM | 13.1 µM | 25.8 µM | 12 µM | 24.4 µM | 3.33 µM | 12.7 µM | 13.4 µM | 26.8 µM
